The series can be described thus: Solubility in organic solvent (Test Example 1). The series is classed as physicochemical. The following applies: monomer, stirred for 1 hour; for degree of dissolution in MEK: 1 g added to MEK at 25° C.; for degree of dissolution in PGME: 1 g added to PGME at 25° C.; for degree of dissolution in PGMEA: 1 g added to PGMEA at 25° C.; for degree of dissolution in Butyl acetate: 1 g added to butyl acetate at 25° C. The source says: Among the monomers used in Polymer Synthesis Examples 1 to 4 and Comparative Polymer Synthesis Examples 1 to 4, with respect to compounds (m0-1) and (m0-2) which are classified as a structural unit (a0), compounds (m2-1) and (m2-2) which are classified as a structural unit (a2), a compound in which the —S(═O)2— portion of the compound (m0-1) has been replaced with —C(═O)— (a compound in which the cyclic group within the compound (m0-1) has been replaced with the cyclic group of the compound (m2-1), hereafter referred to as compound (m2-3)), and polymeric compounds 1, 1′ and 4′, the solubility in an organic solvent was evaluated as follows.
1 g of each compound was added to an organic solvent indicated in Table 1 at 25° C., and stirred for 1 hour. After the stirring, the degree of dissolution of each compound in each organic solvent was evaluated with the following criteria. […]

Consider four molecules from US8394578B2, “Method of forming resist pattern and negative tone-development resist composition” (Tokyo Ohka Kogyo Co., Ltd., priority 2010, dated 2013).

Take `C=C(C)C(=O)OCC(=O)OC1C2CC3C1OS(=O)(=O)C3C2` (stereo not shown) [Compound (m0-1)]: the “degree of dissolution in MEK” value is “B (15% by weight or more but less than 40% by weight)”, the “degree of dissolution in PGME” value was “C (7% by weight or more but less than 15% by weight)”, the “degree of dissolution in PGMEA” value was “C (7% by weight or more but less than 15% by weight)” and the “degree of dissolution in Butyl acetate” value is recorded as “C (7% by weight or more but less than 15% by weight)”.

On to `C=C(C)C(=O)OC1C2CC3C1OS(=O)(=O)C3C2` (stereo not shown) [Compound (m0-2)], for which the “degree of dissolution in MEK” value is “B (15% by weight or more but less than 40% by weight)”, the “degree of dissolution in PGME” value is recorded as “C (7% by weight or more but less than 15% by weight)”, the “degree of dissolution in PGMEA” value is on record as “C (7% by weight or more but less than 15% by weight)” and the “degree of dissolution in Butyl acetate” value was “D (less than 7% by weight)”.

`C=C(C)C(=O)OC1C2CC3C(=O)OC1C3C2` (stereo not shown) [Compound (m2-1)]: the “degree of dissolution in MEK” value is “B (15% by weight or more but less than 40% by weight)”, the “degree of dissolution in PGME” value is listed as “C (7% by weight or more but less than 15% by weight)”, the “degree of dissolution in PGMEA” value is given as “B (15% by weight or more but less than 40% by weight)” and the “degree of dissolution in Butyl acetate” value was “C (7% by weight or more but less than 15% by weight)”.

For `C=C(C)C(=O)OC1CCOC1=O` (stereo not shown) [Compound (m2-2)], the “degree of dissolution in MEK” value is reported as “A (40% by weight or more)”, the “degree of dissolution in PGME” value is given as “A (40% by weight or more)”, the “degree of dissolution in PGMEA” value is “A (40% by weight or more)” and the “degree of dissolution in Butyl acetate” value is listed as “A (40% by weight or more)”.
